Columns and labels:
[1] = Self administration of ribose, subject with low energy after systemic bacterial infection; type: in vivo, human
Source text: An example of a subject having no overt disease who benefitted from self-administered ribose is a person. They had adhered to a strict weekly exercise regimen most of their life until sustaining a systemic bacterial infection, which required admission to the intensive care unit for one month and rehabilitation for an additional month. Their cardiovascular and pulmonary systems were predominantly affected during and following their illness and function had not recovered to its previous levels, or to their satisfaction, after one year.
Following convalescence, they have attempted to resume an exercise regimen, which involves running on a treadmill four days a week and lifting weights for two days a week. The runs were restricted to short intervals. Following the daily exercises, they have continuously experienced fatigue to the point of exhaustion and has required frequent naps. The patient began self-administering oral D-ribose at two doses per day, 4-5 grams per dose. Within seven days, they testified that their “pep” and exercise tolerance increased. For the first time since their illness, they are able to run as long as 30 minutes on the treadmill. They still experience a Degree of fatigue, but has been able to discontinue the naps after exercise. They continue on the daily oral doses of ribose, along with their scheduled exercises and feels a continuing improvement in their energy level after four weeks of ribose administration.

[2] = Treadmill test (Bruce protocol), single patient with stable coronary artery disease; type: in vivo, human
Experimental: The patient was tested for treadmill performance. After two baseline treadmill tests, following the Bruce protocol, they received orally administered D-ribose (40 gm in three divided doses daily) for three days and completed a third treadmill test. […] In each test, this patient concluded the test due to shortness of breath, but experienced no angina.
It is generally accepted that the product of heart rate and systemic pressure is a measure of myocardial function and energy level, with lower numbers indicating better myocardial function. As a result of the administration of ribose, average tolerated time on the treadmill increased.

de novo synthesis of AMP = settings: ribose added to the perfusate; cited from earlier work
[3] = Cycle sprint power output in healthy fit subjects (Ribose Athlete Study); type: in vivo, human; settings: for Mean Power Per Kilogram, Average / Peak Power Per Kilogram, Average / Total Power Per Kilogram, Average: average of sessions 1-6
Experimental: Four healthy, fit subjects in the age range 24 to 26 years of age were tested. The group was selected to be homogeneous regarding fitness level, gender and mean age with no known metabolic, neuronal, endocrine or cardiopulmonary disorders. All were capable of or had experience with cycling. The study protocol included four phases: (1) an initial baseline phase consisting of no exercise session; (2) a loading phase including three days of administration of either D-ribose or placebo (glucose) three times per day; (3) a training phase of three days employing exercise sessions characterized by serial (N=6) bouts of short (10 second) high-intensity cycle sprints at 7% body mass resistance with 50 second rest periods between sprints twice per day (morning and afternoon), and (4) a recovery phase for a period of 48 hours after the final training session. FIG. 1 is a diagram of a single cycle sprint bout. Two subjects were randomly selected for inclusion into the placebo or ribose group. Ribose or glucose was administered orally in a 250 ml iso-osmotic solution containing 10.0 grams of either ribose or placebo three times per day for three days preceding training (loading phase) and for three days during training (training phase). One-half liter isotonic electrolyte solution was given immediately post exercise and again 30 minutes later to avoid dehydration.

[4] = ribose group mean, sprint session 1
[5] = ribose group mean, sprint session 2
[6] = ribose group mean, sprint session 3
[7] = ribose group mean, sprint session 4
[8] = ribose group mean, sprint session 5
[9] = ribose group mean, sprint session 6

Compound: O=C[C@H](O)[C@H](O)[C@H](O)CO [Ribose, D-ribose]
- adverse effects ([1]; four weeks of oral ribose administration): no adverse effects
- time able to run on the treadmill ([1]; oral D-ribose two doses per day, 4-5 grams per dose): ≤ 30 min
- "pep" and exercise tolerance ([1]; within seven days of oral D-ribose, two doses per day, 4-5 grams per dose): increased
- Rate-pressure product, % change ([2]; 0 (rest), Test vs average of two baselines): −9.55%
- Rate-pressure product (beats per minute times systolic blood pressure mm Hg), Test ([2]; 0 (rest), oral D-ribose 40 gm in three divided doses daily for three days): 9,177
- Rate-pressure product (beats per minute times systolic blood pressure mm Hg), Test ([2]; 3 minutes on treadmill, after D-ribose): 15,272
- Rate-pressure product, % change ([2]; 3 minutes, Test vs average of two baselines): −1.60%
- Rate-pressure product (beats per minute times systolic blood pressure mm Hg), Test ([2]; 6 minutes on treadmill, after D-ribose): 20,592
- Rate-pressure product, % change ([2]; 6 minutes, Test vs average of two baselines): −15.68%
- Rate-pressure product (beats per minute times systolic blood pressure mm Hg), Test ([2]; 9 minutes on treadmill, after D-ribose): 25,356
- Rate-pressure product, % change ([2]; 9 minutes, Test vs average of two baselines): −9.87%
- Tolerated time, % change ([2]; Test vs average of two baselines): 5.06%
- patient's subjective report ([2]; during ribose administration): feeling more energetic
- Tolerated time, Test ([2]; treadmill, Bruce protocol, after D-ribose): 540.00 s
- de novo synthesis of AMP in sedentary muscle (de novo synthesis of AMP): increases the de novo synthesis of AMP
- decline in de novo synthesis in contracting muscle (de novo synthesis of AMP): does not eliminate the decline
- Mean Power Per Kilogram, Average ([3]; ribose group mean): 8.2 Watts
- Peak Power Per Kilogram, Average ([3]; ribose group mean): 9.6 Watts
- Total Power Per Kilogram, Average ([3]; ribose group mean): 81.6
- Peak Power Per Kilogram [3, 4]: 8.9 Watts
- Total Power Per Kilogram [3, 4]: 79.3
- Mean Power Per Kilogram ([3]; ribose group mean, sprint session 1, 10.0 grams oral three times per day): 7.8 Watts
- Mean Power Per Kilogram [3, 5]: 8.4 Watts
- Peak Power Per Kilogram [3, 5]: 9.7 Watts
- Total Power Per Kilogram [3, 5]: 83.3
- Mean Power Per Kilogram [3, 6]: 8.5 Watts
- Peak Power Per Kilogram [3, 6]: 10.0 Watts
- Total Power Per Kilogram [3, 6]: 84.2
- Mean Power Per Kilogram [3, 7]: 8.3 Watts
- Peak Power Per Kilogram [3, 7]: 9.9 Watts
- Total Power Per Kilogram [3, 7]: 82.8
- Mean Power Per Kilogram [3, 8]: 8.2 Watts
- Peak Power Per Kilogram [3, 8]: 9.8 Watts
- Total Power Per Kilogram [3, 8]: 81.8
- Mean Power Per Kilogram [3, 9]: 7.8 Watts
- Peak Power Per Kilogram [3, 9]: 9.3 Watts
- Total Power Per Kilogram [3, 9]: 77.9
- Mean Power Per Kilogram, average relative to placebo (100.0%) ([3]; ribose group vs placebo group): 109.0%
- Peak Power Per Kilogram, average relative to placebo (100.0%) ([3]; ribose group vs placebo group): 109.9%
- Total Power Per Kilogram, average relative to placebo (100.0%) ([3]; ribose group vs placebo group): 109.5%
- increase in performance ([3]; ribose vs placebo, Tables II to IV): 9%
- Mean Power Per Kilogram, Average ([3]; subject 2R): 7.5 Watts
- Peak Power Per Kilogram, Average ([3]; subject 2R): 8.8 Watts
- Total Power Per Kilogram, Average ([3]; subject 2R): 75.1
- Mean Power Per Kilogram ([3]; subject 2R, sprint session 1): 6.9 Watts
- Peak Power Per Kilogram ([3]; subject 2R, sprint session 1): 7.9 Watts
- Total Power Per Kilogram ([3]; subject 2R, sprint session 1): 71.9
- Mean Power Per Kilogram ([3]; subject 2R, sprint session 2): 7.5 Watts
- Peak Power Per Kilogram ([3]; subject 2R, sprint session 2): 8.8 Watts
- Total Power Per Kilogram ([3]; subject 2R, sprint session 2): 74.7
- Mean Power Per Kilogram ([3]; subject 2R, sprint session 3): 7.8 Watts
- Peak Power Per Kilogram ([3]; subject 2R, sprint session 3): 9.2 Watts
- Total Power Per Kilogram ([3]; subject 2R, sprint session 3): 77.1
- Mean Power Per Kilogram ([3]; subject 2R, sprint session 4): 7.6 Watts
- Peak Power Per Kilogram ([3]; subject 2R, sprint session 4): 9.0 Watts
- Total Power Per Kilogram ([3]; subject 2R, sprint session 4): 75.6
- Mean Power Per Kilogram ([3]; subject 2R, sprint session 5): 7.9 Watts
- Peak Power Per Kilogram ([3]; subject 2R, sprint session 5): 9.4 Watts
- Total Power Per Kilogram ([3]; subject 2R, sprint session 5): 78.1
- Mean Power Per Kilogram ([3]; subject 2R, sprint session 6): 7.4 Watts
- Peak Power Per Kilogram ([3]; subject 2R, sprint session 6): 8.7 Watts
- Total Power Per Kilogram ([3]; subject 2R, sprint session 6): 73.4
- Mean Power Per Kilogram, Average ([3]; subject 3R): 8.8 Watts
- Peak Power Per Kilogram, Average ([3]; subject 3R): 10.3 Watts
- Total Power Per Kilogram, Average ([3]; subject 3R): 88.0
- Mean Power Per Kilogram ([3]; subject 3R, sprint session 1): 8.7 Watts
- Peak Power Per Kilogram ([3]; subject 3R, sprint session 1): 9.8 Watts
- Total Power Per Kilogram ([3]; subject 3R, sprint session 1): 86.8
- Mean Power Per Kilogram ([3]; subject 3R, sprint session 2): 9.2 Watts
- Peak Power Per Kilogram ([3]; subject 3R, sprint session 2): 10.6 Watts
- Total Power Per Kilogram ([3]; subject 3R, sprint session 2): 91.9
- Mean Power Per Kilogram ([3]; subject 3R, sprint session 3): 9.1 Watts
- Peak Power Per Kilogram ([3]; subject 3R, sprint session 3): 10.7 Watts
- Total Power Per Kilogram ([3]; subject 3R, sprint session 3): 91.3
- Mean Power Per Kilogram ([3]; subject 3R, sprint session 4): 9.0 Watts
- Peak Power Per Kilogram ([3]; subject 3R, sprint session 4): 10.7 Watts
- Total Power Per Kilogram ([3]; subject 3R, sprint session 4): 90.0
- Mean Power Per Kilogram ([3]; subject 3R, sprint session 5): 8.5 Watts
- Peak Power Per Kilogram ([3]; subject 3R, sprint session 5): 10.1 Watts
- Total Power Per Kilogram ([3]; subject 3R, sprint session 5): 85.4
- Mean Power Per Kilogram ([3]; subject 3R, sprint session 6): 8.2 Watts
- Peak Power Per Kilogram ([3]; subject 3R, sprint session 6): 9.9 Watts
- Total Power Per Kilogram ([3]; subject 3R, sprint session 6): 82.5
